According to patent publication US20240132484A1, “BROAD SPECTRUM ANTIVIRAL COMPOUNDS TARGETING THE SKI COMPLEX” (priority 2020, published 2024):

Test system: Influenza virus
Experiment: organism not typed
Type: cell-based, influenza A virus
Conditions: for Avg PFU/ml: average of first and second experiment; for Influenza virus titer, 10 μM / Influenza virus titer, 50 μM: upper part of table (FIG. 5 data); for Influenza virus titer, 10 μM / Influenza virus titer, 50 μM / Flu titer (pfu/ml): plaque assay; for Avg: 1-24-20

| Compound | first experiment (10 μM screen) | second experiment (10 μM screen) | Avg PFU/ml (10 μM screen) | Influenza virus titer, 10 μM (10 μM) | first experiment PFU/ml (50 μM screen) | second experiment PFU/ml (50 μM screen) | Avg PFU/ml (50 μM screen) | Influenza virus titer, 50 μM | Flu titer (pfu/ml) (1 μM compound, A549 cells) | Flu titer (pfu/ml) (10 μM compound, A549 cells) | Flu titer (pfu/ml) (50 μM compound, A549 cells) | other results |
| --- | --- | --- | --- | --- | --- | --- | --- | --- | --- | --- | --- | --- |
| COc1ccc(CNCCc2ccccc2C)c(OCC(O)CN2CCN(C)CC2)c1 (stereo not drawn) [Compound 18-2] | 500 PFU/ml | 1900 PFU/ml | 1200 PFU/ml | 500 PFU/virus/ml | 1700 PFU/ml | 100 PFU/ml | 900 PFU/ml | 1700 PFU/virus/ml |  |  |  |  |
| COC(=O)C1CCN(CC(O)COc2cccc(CN(C)Cc3cc(C)no3)c2)CC1 (stereo not drawn) [Compound 62396835, methyl 1-{2-hydroxy-3-[3-({methyl[(3-methyl-5-isoxazolyl)methyl]amino}methyl)phenoxy]propyl}-4-piperidinecarboxylate] |  |  |  |  |  |  |  |  | 66000 pfu/ml | 71000 pfu/ml | 30000 pfu/ml |  |
| COc1ccc(CNCC2CCCCC2)c(OCC(O)CN2CCN(C)CC2)c1 (stereo not drawn) [Compound 18-5] | 60000 PFU/ml | 500 PFU/ml | 30250 PFU/ml | 60000 PFU/virus/ml | 2100 PFU/ml | 400 PFU/ml | 1250 PFU/ml | 2100 PFU/virus/ml |  |  |  |  |
| COc1ccc(CNCCc2ccccc2F)c(OCC(O)CN2CCN(C)CC2)c1 (stereo not drawn) [UMBCADD-0018, 1-[2-({[2-(2-fluorophenyl)ethyl]amino}methyl)-5-methoxyphenoxy]-3-(4-methyl-1-piperazinyl)-2-propanol] |  |  |  |  |  |  |  |  |  |  |  | inhibition of Influenza virus replication (10 μM, A549 cells): over 20 fold; antiviral activity against IAV infection (screening, A549 cells): effective at 50 μM, 10 μM and 1 μM |
| COc1ccc(CNCCc2ccccc2Cl)c(OCC(O)CN2CCN(C)CC2)c1 (stereo not drawn) [Compound 18-4] | 7000 PFU/ml | 800 PFU/ml | 3900 PFU/ml | 7000 PFU/virus/ml | 1100 PFU/ml | 300 PFU/ml | 700 PFU/ml | 1100 PFU/virus/ml |  |  |  |  |
| CN(CC(O)COc1ccccc1CNCCN1CCCC1)C1CCCCC1 (stereo not drawn) [Compound 74597070, 1-[cyclohexyl(methyl)amino]-3-[2-({[2-(1-pyrrolidinyl)ethyl]amino}methyl)phenoxy]-2-propanol] |  |  |  |  |  |  |  |  | 70000 pfu/ml | 55000 pfu/ml | 24000 pfu/ml |  |
| CCCCC(=O)Nc1cccc(NC(=O)COc2ccc(C3CCCCC3)cc2)c1 [Compound 7973169, N-(3-{[2-(4-cyclohexylphenoxy)acetyl]amino}phenyl)pentanamide] |  |  |  |  |  |  |  |  | 101000 pfu/ml | 66000 pfu/ml | 110000 pfu/ml |  |
| COc1ccc(CNCCCSC)c(OCC(O)CN2CCCCCCC2)c1 (stereo not drawn) [Compound 18-14] | 44000 PFU/ml | 12000 PFU/ml | 28000 PFU/ml | 4400 PFU/virus/ml | 80000 PFU/ml | 1100 PFU/ml | 40550 PFU/ml | 80000 PFU/virus/ml |  |  |  |  |
| COc1ccc(CNCCCSC)c(OCC(O)CN2CCN(C)CC2)c1 (stereo not drawn) [Compound 18-16] | 210000 PFU/ml | 18000 PFU/ml | 114000 PFU/ml | 21000 PFU/virus/ml | 30000 PFU/ml | 2300 PFU/ml | 16150 PFU/ml | 90000 PFU/virus/ml |  |  |  |  |
| CCc1ccc(OC(C)c2nnc(SCC(=O)Nc3nc(-c4ccccc4)c(C)s3)n2C)cc1 (stereo not drawn) [Compound 7493781, 2-({5-[1-(4-ethylphenoxy)ethyl]-4-methyl-4H-1,2,4-triazol-3-yl}thio)-N-(5-methyl-4-phenyl-1,3-thiazol-2-yl)acetamide] |  |  |  |  |  |  |  |  | 75000 pfu/ml | 98000 pfu/ml | 53000 pfu/ml |  |
| COc1ccc(CNCCCn2ccnc2C)c(OCC(O)CN2CCN(C)CC2)c1 (stereo not drawn) [Compound 18-7] | 240000 PFU/ml | 44000 PFU/ml | 142000 PFU/ml | 240000 PFU/virus/ml | 110000 PFU/ml | 31000 PFU/ml | 70500 PFU/ml | 110000 PFU/virus/ml |  |  |  |  |
| CC1=C(C(=O)OC2CCCCCCC2)C(c2ccc3c(c2)OCO3)NC(=O)N1 (stereo not drawn) [UMB115] |  |  |  |  |  |  |  |  |  |  |  | 10 μM treatment, Average (10 μM treatment, average of replicates): 3500; 10 μM treatment (10 μM treatment, replicate 2): 5000; 50 μM treatment Average (50 μM compound, average of replicates): 0; 50 μM treatment (50 μM compound, replicate 1, DMSO (0.5%) control run per batch): 0; 50 μM treatment (50 μM compound, replicate 2): 0 |
| COc1ccc(CNCCCn2ccnc2)c(OCC(O)CN2CCN(C)CC2)c1 (stereo not drawn) [Compound 18-15] | 16000 PFU/ml | 8000 PFU/ml | 12000 PFU/ml | 36000 PFU/virus/ml | 70000 PFU/ml | 1000 PFU/ml | 35500 PFU/ml | 30000 PFU/virus/ml |  |  |  |  |
| OCCN(Cc1nc(Cc2cccc(C(F)(F)F)c2)no1)CC12CC3CC(CC(C3)C1)C2 [Compound 61121342, 2-[(1-adamantylmethyl)({3-[3-(trifluoromethyl)benzyl]-1,2,4-oxadiazol-5-yl}methyl)amino]ethanol] |  |  |  |  |  |  |  |  | 9000 pfu/ml | 130000 pfu/ml | 50000 pfu/ml |  |
| O=C(CCCc1ccccc1)Nc1cccc(N2CCC(NCCCn3nnc4ccccc43)CC2)c1 [Compound 84256405, N-[3-(4-{[3-(1H-1,2,3-benzotriazol-1-yl)propyl]amino}-1-piperidinyl)phenyl]-4-phenylbutanamide] |  |  |  |  |  |  |  |  | 50000 pfu/ml | 140000 pfu/ml | 210000 pfu/ml |  |
| COc1ccc(CNCCc2cccnc2)c(OCC(O)CN2CCCCCCC2)c1 (stereo not drawn) [Compound 18-9] | 200000 PFU/ml | 9000 PFU/ml | 104500 PFU/ml | 200000 PFU/virus/ml | 20000 PFU/ml | 2600 PFU/ml | 11300 PFU/ml | 20000 PFU/virus/ml |  |  |  |  |
| COc1ccc(CNC2CCCCC2)c(OCC(O)CN2CCN(C)CC2)c1 (stereo not drawn) [Compound 18-10] | 40000 PFU/ml | 2600 PFU/ml | 21300 PFU/ml | 40000 PFU/virus/ml | 16000 PFU/ml | 1900 PFU/ml | 8950 PFU/ml | 16000 PFU/virus/ml |  |  |  |  |
| COc1ccccc1Cn1cc(C(=O)NCCC2=CCCCC2)c(=O)c(C(=O)N(CCO)C(C)C)c1 [Compound 55345532, N′-[2-(1-cyclohexen-1-yl)ethyl]-N-(2-hydroxyethyl)-N-isopropyl-1-(2-methoxybenzyl)-4-oxo-1,4-dihydro-3,5-pyridinedicarboxamide] |  |  |  |  |  |  |  |  | 55000 pfu/ml | 70000 pfu/ml | 34000 pfu/ml |  |
| COc1ccc(CNCCc2ccccc2F)c(OCC(O)CN2CCN(C)CC2)c1 (stereo not drawn) [Compound 18, 1-[2-({[2-(2-fluorophenyl)ethyl]amino}methyl)-5-methoxyphenoxy]-3-(4-methyl-1-piperazinyl)-2-propanol] | 2000 PFU/ml | 1100 PFU/ml | 1550 PFU/ml |  | 1400 PFU/ml | 300 PFU/ml | 850 PFU/ml |  |  |  |  | Avg (10 μM screen): 1150 PFU/ml; Avg (50 μM screen): 400 PFU/ml |
| COc1ccc(OC)c(Cc2nnc(CCC(=O)NC3CC(C)(C)CC(C)(C)C3)o2)c1 [Compound 35434810, 3-[5-(2,5-dimethoxybenzyl)-1,3,4-oxadiazol-2-yl]-N-(3,3,5,5-tetramethylcyclohexyl)propanamide] |  |  |  |  |  |  |  |  | 80000 pfu/ml | 80000 pfu/ml | 130000 pfu/ml |  |
| CCN1CCN(CC(O)COc2cccc(CN(C)Cc3cc(C)no3)c2)CC1 (stereo not drawn) [Compound 77921510, 1-(4-ethyl-1-piperazinyl)-3-[3-({methyl[(3-methyl-5-isoxazolyl)methyl]amino}methyl)phenoxy]-2-propanol] |  |  |  |  |  |  |  |  | 72000 pfu/ml | 90000 pfu/ml | 26000 pfu/ml |  |
| COc1ccc(CNCCCn2cccn2)c(OCC(O)CN2CCN(C)CC2)c1 (stereo not drawn) [Compound 18-13] | 40000 PFU/ml | 20000 PFU/ml | 30000 PFU/ml | 40000 PFU/virus/ml | 80000 PFU/ml | 110000 PFU/ml | 95000 PFU/ml | 80000 PFU/virus/ml |  |  |  |  |
| COCCCNCc1ccc(OC)cc1OCC(O)CN1CCN(C)CC1 (stereo not drawn) [Compound 18-11] | 100000 PFU/ml | 39000 PFU/ml | 69500 PFU/ml | 100000 PFU/virus/ml | 160000 PFU/ml | 31000 PFU/ml | 95500 PFU/ml | 160000 PFU/virus/ml |  |  |  |  |
| COc1ccc(CNCC(F)(F)F)c(OCC(O)CN2CCN(C)CC2)c1 (stereo not drawn) [Compound 18-12] | 30000 PFU/ml | 28000 PFU/ml | 29000 PFU/ml | 30000 PFU/virus/ml | 90000 PFU/ml | 26000 PFU/ml | 58000 PFU/ml | 90000 PFU/virus/ml |  |  |  |  |
